Experimental data reported in US7271278B2, “Application of chromium-amino acid complexes in the treatment of diabetes and other diseases” (The University of Wyoming, priority 2005, dated 2007).

Tests used:
ob/ob(+/+) mice [1] = experiment: Plasma/serum lipids (total cholesterol, HDL) in obese mice; assay type: in vivo, mouse
Method: Specifically, mice were treated with Cr(pa)3 at 150 μg/kg/day for six weeks. Cholesterol levels were determined by using a kit from Equal Diagnostics (Exton, Pa.) following the manufacturer's protocol.
All animal treatment procedures described in this study were approved by the Animal Care and Use Committee at University of Wyoming (Laramie, Wyo.). Homozygous B6.Vlep/J male mice purchased from the Jackson Laboratory (Bar Harbor, Me.) at age 5 weeks were divided randomly into two weight-matched groups, marked as ob/ob(+/+) control and ob/ob(+/+) treatment (n=12). Number and age-matched normal C57 mice were used as lean control. All animals were maintained on conventional laboratory diet under well-controlled conditions of temperature (22±2° C.), humidity (55±5%) and 12 hours/12 hours light-dark cycle and had ad libitum access to water and standard rodent chow. Cr(D-Phe)3 was provided in the drinking water and, on the basis of water intake, was administered to provide an intake of about 150 μg/kg/day corresponding to about 10-15 μg elemental Cr/kg/day) for ob/ob(+/+) and lean treatment groups. […] The livers of these mice were frozen in liquid nitrogen immediately and stored at −80° C. until use. Blood was collected from the heart, and the serum was extracted by centrifuging the blood at 1000 g at 4° C. and stored at −80° C. Weights of body and other organs were measured with a standard laboratory scale.
Serum levels of total cholesterol, high-density-lipoprotein (HDL) and triglycerides were measured using commercial kits (from Equal Diagnostics, Exton, Pa.) and SpectraMax 340PC^384 Microplate Reader System (Molecular Device, Sunnyvale, Calif.).

ob/ob(+/+) mice [2] = experiment: Intraperitoneal glucose tolerance test (IPGTT) in ob/ob(+/+) and lean mice; assay type: in vivo, mouse
Excerpt: (§1) All animal treatment procedures described in this example were approved by the animal Care and Use Committee at University of Wyoming (Laramie, Wyo.). Homozygous B6.V-lep ob>/J male mice purchased from the Jackson Laboratory (Bar Harbor, Me.) at age 5 weeks were divided randomly into two weight-matched groups, marked as ob/ob(+/+) control and ob/ob(+/+) treatment (n=10). Number, age and weight matched normal C57 mice were used as lean control. All of these animals were maintained on conventional laboratory diet under well-controlled conditions of temperature (22±2° C.), humidity (55±5%) and 12 hour/12 hour light-dark cycle and had ad libitum access to water and standard rodent chow. Rodent diet and tap water were consumed by mice ad libitum. Cr(pa)3 was provided in the drinking water and, on the basis of water intake, was administered to provide an intake of about 150 μg/kg/day corresponding to about 10-15 μg elemental Cr/kg/day for ob/ob(+/+) and lean treatment groups. The dosage of chromium used was based on earlier animal studies reported with chromium picolinate (Cefalu et al. (2002) J. Nutr., 132:1107-1114).
At the end of the treatment schedule, mice were subjected to the intraperitoneal glucose tolerance test (IPGTT) as described previously (Hintz et al. (2003) Int. J. Obes. Relat. Metab. Disord., 27:1196-1203). Briefly, the mice were fasted for 12 hours and then given intraperitoneal injection of glucose (2 g/kg body weight). Glucose levels were determined in blood drops obtained by clipping the tail of the mice immediately before glucose challenge, as well as at 15, 60 and 120 minutes thereafter. Serum glucose levels were determined using ACCU-CHEK® Advantage® Glucose Analyzer (Roche Diagnostics Corporation, Ind.). Results of IPGTT are also expressed as integrated areas under the curves (AUC) over 120 minutes for glucose calculated by using the WinNonlin software (Pharsight Corporation, Mountain View, Calif.).

[3] = Body and organ weight of ob/ob(+/+) mice after 6-week treatment; assay type: in vivo, mouse
Excerpt: as §1
All animal treatment procedures described in this study were approved by the Animal Care and Use Committee at University of Wyoming (Laramie, Wyo.). […] Weights of body and other organs were measured with a standard laboratory scale.

[4] = Deoxyribose degradation assay for generation of hydroxyl radicals; conditions: 1.2 μM
Method: The potential of chromium compounds to generate hydroxyl radicals in vitro was assessed by the method reported previously (Halliwell et al. (1987) Anal. Biochem., 165:215-219). Briefly, a reaction mixture containing either chromium picolinate or Cr(pa)3, 2-deoxyribose (4 mM), ascorbic acid (100 μM) and hydrogen peroxide (100 μM) in potassium phosphate buffer (pH 7.4, 10 mM) was incubated at 37° C. for 30 minutes. An aliquot of the mixture was treated with 1% (w/v) thiobarbituric acid and 2.8% (w/v) trichloroacetic acid and heated at 90° C. for 10 minutes, rapidly cooled and the amount of chromogen formed in the sample was measured by its absorption at 532 nm. Ferric-EDTA (100 μM) was used as a positive control.

Akt = experiment: Insulin-stimulated Akt (thr308) phosphorylation, Western blot of 3T3-adipocyte lysates; assay type: cell-based, mouse
Method: The 3T3-L1-pre-adipocytes were obtained from the American Type Culture Collection and were propagated at 37° C. in DMEM with 10% newborn calf serum plus 50 U/ml penicillin and 50 μg/ml streptomycin in an incubator under a humidified atmosphere of 5% CO2/95% air. Induction of differentiation was done one day post-confluence. Cells were maintained in differentiation medium of the following composition: DMEM, 10% FBS, […] dexamethasone, 0.5 mM 1-isobutyl-3-methylxanthine (IBMX) and ITS for three days. At day 3, the dexamethasone and IBMX were removed with ITS remaining on the cells for an additional two days. Differentiation was allowed to continue in DMEM supplemented with 10% FBS, ITS and the adipocytes were used between day 9 and 14 post-induction. Prior to the cellular assays, cells were serum starved by overnight incubation in DMEM (containing 0.2% serum).
Cells were lysed in RIPA buffer (150 mM NaCl, 0.25% sodium desoxycholate, 1% NP-40, 1 mM EDTA and 50 mM Tris, pH 7.2) containing 2 mM sodium vanadate, 1 μM PMSF, 1 μM sodium fluoride, 1 μg/ml aprotinin, 1 μg/ml leupeptin, and 1 μM pepstatin and sonicated to reduce the sample viscosity. The lysate was centrifuged at 15000×g for 15 minutes at 4° C. and the protein concentration in the supernatant was determined by the bicinchoninic acid method. Equivalent amounts of proteins were boiled in Laemmli sample buffer. Proteins 10-20 μg were separated on 7.5-10% polyacrylamide gel, and electrophoretically transferred to a nitrocellulose membrane. The membranes were incubated for 1 hour at room temperature in blocking buffer (5% w/v non-fat dry milk in tris buffered saline containing 0.1% Tween 20). Membranes were incubated in appropriate phospho-specific primary antibody for insulin receptor beta or Akt at 1:2500 dilutions in the blocking buffer followed by incubation with horseradish peroxidase-coupled secondary antibodies with appropriate specificity. Immunoreactive bands were visualized using enhanced chemiluminescence reagents (Cell Signaling Technology, Inc, Beverly, Mass.). Blots were then stripped and re-probed with antibodies directed against insulin receptor β and Akt.

N[C@H](Cc1ccccc1)C(=O)O.[Cr+3] [Cr(pa)3, chromium (III) D-phenylalanine]
serum HDL-cholesterol levels (ob/ob(+/+) mice [1]; 150 μg/kg/day 6 weeks): did not alter | total serum cholesterol levels (ob/ob(+/+) mice [1]; 150 μg/kg/day 6 weeks (Example 2)): significant lowering | plasma cholesterol levels (ob/ob(+/+) mice [1]; 150 μg/kg/day six weeks (Example 1)): significantly attenuated | AUC of glucose, lean mice (ob/ob(+/+) mice [2]; lean mice, treated vs untreated): no significant changes | serum glucose levels post-glucose-challenge (ob/ob(+/+) mice [2]; ob/ob(+/+) mice, 150 μg/kg/d 6 weeks, 15 and 60 minutes, vs untreated): significantly lower | integrated AUC over 120 minutes of glucose (ob/ob(+/+) mice [2]; ob/ob(+/+) mice, 150 μg/kg/d 6 weeks, vs untreated): significantly lower | difference in body weight ([3]; ob/ob(+/+) mice treated vs untreated): no significant difference | body-mass indices (body, heart, liver, kidney weights) ([3]; obese mice, 150 μg/kg/day six weeks): did not alter | degradation of deoxyribose [4]: failed to cause any degradation of deoxyribose | phosphorylation levels of Akt (Akt; Cr(pa)3 alone, absence of insulin): did not alter | stimulation of insulin-stimulated Akt phosphorylation compared to chromium picolinate (Akt; equimolar concentrations): greater stimulation | in vitro Akt phosphorylation among various chromium complexes (Akt; insulin 10 nM, vs Cr(Pic)3, Cr(AcAc)3, Cr(Sal)3, CrCl3): greatest amount | insulin-stimulated Akt (thr308) phosphorylation (Akt; pretreatment, insulin 10 nM, concentration- and time-dependent): further increase
